Experimental data taken from patent US20260306526A1, “COMBINATION THERAPY FOR BACTERIAL INFECTIONS COMPRISING ZINC-CHELATOR, BETA-LACTAM ANTIBIOTIC AND SERINE BETA-LACTAMASE INHIBITOR” (priority 2023, published 2026).
Values joined by “and” are separate entries in the source; they are usually repeats but may differ in a detail not shown here. Equal entries are not always repeated.

Tests used:
[1] = test system: Klebsiella pneumoniae ST147; experiment: MIC determination, fixed ratio of sBLI to antibiotic (Examples 5-7); format: cell-based; conditions: Example 7; with MEM and AVI (fixed ratio); NDM-1 and KPC-2; caMHB, 29.4 μM Zn2+
Experimental: (§1) Antimicrobial susceptibility testing (AST) by broth microdilution (MIC determination) was performed according to The European Committee on Antimicrobial Susceptibility Testing (EUCAST) guidelines (see Reading guide for broth microdilution Version 5.0, 2024: https://www.eucast.org).
Sterile clear round bottom polystyrene (non-treated) 96-well microplates (Corning 3788) were used for making serial two-fold dilutions of the antibiotic and the sBLI in cation-adjusted Mueller Hinton II broth (caMHB; Thermo Scientific, T3462, containing 29.4 μM Zn^2+), across the columns of the microtiter plate (256-0.06 μg/mL; columns 1-12). The checkerboard plates were all made by keeping the sBLI at a fixed ratio relative to antibiotic (absolute concentrations of each, in μg/mL) to all wells containing sample in each plate. Additionally, a set of samples was included in each test plate, where the zinc chelator was added, at various fixed concentrations, of 16 μg/mL, 8 μg/mL and/or 4 μg/mL (as specified in each Example). All sample wells contained growth medium (caMHB), and inoculated bacteria at a final inoculum between 3-7×10^5 CFU/mL. […]

[2] = test system: Acinetobacter baumannii ST25; experiment: MIC determination, fixed concentration of sBLI (Example 10); format: cell-based; conditions: with AMP and SUL 16 μg/mL, NDM-1, OXA-58, OXA-64, OXA-10, VEB-21, ADC-26, caMHB, 29.4 μM Zn2+
Experimental: as §1
For combinations containing meropenem as the antibiotic, Sensititre™ FINMER meropenem 64-0.03 μg/mL plates (Thermo Fischer Diagnostics custom plates; YFINMER) were used in most of the experiments. For other antibiotics (and for meropenem whenever a higher start concentration than 64 μg/mL was needed) sterile clear round bottom polystyrene (non-treated) 96-well microplates (Corning 3788) were used for making serial two-fold dilutions of the antibiotic in cation-adjusted Mueller Hinton II broth (caMHB; Thermo Scientific, T3462, containing 29.4 μM Zn^2+ or MILLIPORE, 90922-500G, containing 5.6 μM Zn^2+), across the columns of the microtiter plate (128-0.06 μg/mL; columns 1-12).
The checkerboard plates were all modified by adding a serine β-lactamase inhibitor (sBLI) at a fixed concentration of 16 μg/mL. Additionally, the zinc chelator was added at various fixed concentrations. […]

## CN(C[C@H](O)[C@@H](O)[C@H](O)[C@H](O)CO)C(=O)c1ccc(CN(Cc2ccccn2)Cc2ccccn2)nc1 [zinc chelator]
[1]
  Synergy with the zinc chelator observed at concentration: 16 µg/mL and 8 µg/mL
[2]
  Synergy with the zinc chelator observed at concentration: 16 µg/mL
